Patent US9840547B2, “Hepatic insulin sensitizing substance and test meal for insulin sensitization” (SciMar Ltd., priority 2013, dated 2017)

Experiments:
[1] = literature; cited from earlier work
[2] = Time course of hypoglycemic action in humans; format: in vivo; settings: after an intravenous injection
[3] = Time course of hypoglycemic action in rats; format: in vivo; settings: after an intravenous injection
[4] = tested on: cultured L6 skeletal muscle cells; test: Plasma HISS activity on glucose uptake in cultured L6 skeletal muscle cells (2-NBDG bioassay); format: cell-based; settings: plasma insulin concentration versus RFU, linear regression
Experimental: Individual plasma samples were tested in 1-3 wells/sample with 2 measurements/well.

| Substance | hypoglycemic action [1] | time at which action returns to baseline [2] [min] | time at which action returns to baseline [3] [min] | stimulation of glucose uptake response in L6 cells [4] |
| --- | --- | --- | --- | --- |
| bone morphogenetic protein 9 | no rapid hypoglycemic effect |  |  |  |
| insulin |  | 90 | 35 | not stimulated by insulin |
